Assay results: patent US12338256B2, “Aza-tetracyclic oxazepine compounds and uses thereof” (Genentech, Inc., priority 2022, dated 2025)

Tests used:
Type in all cases: cell-based
[1] = test system: H1975 (KRAS wild type human lung adenocarcinoma cell line); assay: KRAS 3D-Cell Proliferation Assay, H1975 (Example 503); settings: Homo sapiens, NCI-H1975, 168 h, H1975 3D culture, 7 days, CellTiter-Glo 3D; read-out: Prolif H1975 3D ATP IC50
Method in brief: (§1)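 Cells grown in 3D in ultra-low attachment plates (RPMI-1640 with 10% FBS and 2 mM L-glutamine) received compound dilution series after overnight attachment, at 0.3% DMSO final, for 7 days at 37° C. ATP luminescence (CellTiter-Glo 3D) normalized to DMSO and 1 μM staurosporine; IC50 from 4-parameter Hill fit.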

[2] = test system: HPAC (homozygous mutant KRAS G12D human pancreatic cell line); assay: KRAS 3D-Cell Proliferation Assay, HPAC (Example 503); settings: Homo sapiens, HPAC, 168 h, HPAC 3D culture, 7 days, CellTiter-Glo 3D; read-out: Prolif HPAC 3D ATP IC50
Method in brief: as §1

[3] = test system: AsPC-1 (homozygous mutant KRAS G12D human pancreatic cell line); assay: KRAS 3D-Cell Proliferation Assay, AsPC-1 (Example 503); settings: Homo sapiens, ASPC1, 168 h, AsPC-1 3D culture, 7 days, CellTiter-Glo 3D; read-out: Prolif AsPC-1 3D ATP IC50
Method in brief: as §1

SMILES	IC50 [1]	IC50 [2]	IC50 [3]
C[C@@H]1Oc2nc(-c3cc(N)c(F)c(Cl)c3CC(F)F)c(F)c3nc(OC[C@@]45CCCN4C[C@H](F)C5)nc(c23)N2C[C@H]3CC[C@H](N3)[C@@H]12 [Compound 186, 3-Chloro-4-(2,2-difluoroethyl)-2-fluoro-5-((5S,5aS,6S,9R)-1-fluoro-12-(((2R,7aS)-2-fluorotetrahydro-1H-pyrrolizin-7a(5H)-yl)methoxy)-5-methyl-5a,6,7,8,9,10-hexahydro-5H-4-oxa-3,10a,11,13,14-pentaaza-6,9-methanonaphtho[1,8-ab]heptalene-2-yl)aniline]	1090 nM	2.58 nM	8.9 nM
C[C@@H]1Oc2nc(-c3cc(N)c(F)c(F)c3CC(F)F)c(F)c3nc(OC[C@@]45CCCN4C[C@H](F)C5)nc(c23)N2C[C@H]3CC[C@H](N3)[C@@H]12 [Compound 190, 4-(2,2-Difluoroethyl)-2,3-difluoro-5-((5S,5aS,6S,9R)-1-fluoro-12-(((2R,7aS)-2-fluorotetrahydro-1H-pyrrolizin-7a(5H)-yl)methoxy)-5-methyl-5a,6,7,8,9,10-hexahydro-5H-4-oxa-3,10a,11,13,14-pentaaza-6,9-methanonaphtho[1,8-ab]heptalene-2-yl)aniline]	1560 nM	2.2 nM	12.6 nM
Cc1nc(N)c(F)c(-c2nc3c4c(nc(OC[C@@]56CCCN5C[C@H](F)C6)nc4c2F)N2C[C@H]4CC[C@H](N4)[C@H]2[C@H](C)O3)c1C(F)(F)F [Compound 194, 3-Fluoro-4-((5S,5aS,6S,9R)-1-fluoro-12-(((2R,7aS)-2-fluorotetrahydro-1H-pyrrolizin-7a(5H)-yl)methoxy)-5-methyl-5a,6,7,8,9,10-hexahydro-5H-4-oxa-3,10a,11,13,14-pentaaza-6,9-methanonaphtho[1,8-ab]heptalen-2-yl)-6-methyl-5-(trifluoromethyl)pyridin-2-amine]	919 nM	4.99 nM	2.7 nM
Cc1nc(N)cc(-c2nc3c4c(nc(OCC5(CN6C7CCC6COC7)CC5)nc4c2F)N2C[C@H]4CC[C@H](N4)[C@H]2[C@H](C)O3)c1C(F)(F)F [Compound 206, 4-((5S,5aS,6S,9R)-12-((1-((3-Oxa-8-azabicyclo[3.2.1]octan-8-yl)methyl)cyclopropyl)methoxy)-1-fluoro-5-methyl-5a,6,7,8,9,10-hexahydro-5H-4-oxa-3,10a,11,13,14-pentaaza-6,9-methanonaphtho[1,8-ab]heptalene-2-yl)-6-methyl-5-(trifluoromethyl)pyridin-2-amine]	2840 nM	3.16 nM	3.6 nM
Cc1nc(N)cc(-c2nc3c4c(nc(OCC5(CN6CCOCC6)CC5)nc4c2F)N2C[C@H]4CC[C@H](N4)[C@H]2[C@H](C)O3)c1C(F)(F)F [Compound 210, 4-((5S,5aS,6S,9R)-1-Fluoro-5-methyl-12-((1-(morpholinomethyl)cyclopropyl)methoxy)-5a,6,7,8,9,10-hexahydro-5H-4-oxa-3,10a,11,13,14-pentaaza-6,9-methanonaphtho[1,8-ab]heptalene-2-yl)-6-methyl-5-(trifluoromethyl)pyridin-2-amine]	868 nM	1.81 nM	3.6 nM
Cc1nc(N)cc(-c2nc3c4c(nc(OCC56CCN5CC(F)(F)C6)nc4c2F)N2C[C@H]4CC[C@H](N4)[C@H]2[C@H](C)O3)c1C(F)(F)F (stereo partly drawn) [Compound 214, 4-((5S,5aS,6S,9R)-12-((3,3-Difluoro-1-azabicyclo[3.2.0]heptan-5-yl)methoxy)-1-fluoro-5-methyl-5°,6,7,8,9,10-hexahydro-5H-4-oxa-3,10°,11,13,14-pentaaza-6,9-methanonaphtho[1,8-ab]heptalen-2-yl)-6-methyl-5-(trifluoromethyl)pyridin-2-amine]	7030 nM	8.04 nM	25.4 nM
Cc1nc(N)cc(-c2nc3c4c(nc(OC[C@@]56CCCN5C[C@H](F)C6)nc4c2F)N2C[C@H]4CC[C@H](N4)[C@H]2[C@H](C)O3)c1C(F)(F)F [Compound 215, 4-((5S,5aS,6S,9R)-1-Fluoro-12-(((2R,7aS)-2-fluorotetrahydro-1H-pyrrolizin-7°(5H)-yl)methoxy)-5-methyl-5°,6,7,8,9,10-hexahydro-5H-4-oxa-3,10°,11,13,14-pentaaza-6,9-methanonaphtho[1,8-ab]heptalen-2-yl)-6-methyl-5-(trifluoromethyl)pyridin-2-amine]	831 nM	2.5 nM	7.8 nM
Cc1nc(N)cc(-c2nc3c4c(nc(OC[C@@]56CCCN5CC5(CC5(F)F)C6)nc4c2F)N2C[C@H]4CC[C@H](N4)[C@H]2[C@H](C)O3)c1C(F)(F)F (stereo partly drawn) [Compound 216, 4-((5S,5aS,6S,9R)-12-(((7a′S)-2,2-Difluorodihydro-1′,3′H-spiro[cyclopropane-1,2′-pyrrolizin]-7a′(5′H)-yl)methoxy)-1-fluoro-5-methyl-5a,6,7,8,9,10-hexahydro-5H-4-oxa-3,10a,11,13,14-pentaaza[6,9]methanonaphtho[1,8-ab]heptalene-2-yl)-6-methyl-5-(trifluoromethyl)pyridin-2-amine]	161 nM	0.893 nM	0.6 nM
Cc1c(F)c(N)c(F)c(-c2nc3c4c(nc(OCC5(CN6CCOCC6)CC5)nc4c2F)N2C[C@H]4CC[C@H](N4)[C@H]2[C@H](C)O3)c1C(F)(F)F [Compound 224, 2,6-Difluoro-3-((5S,5aS,6S,9R)-1-fluoro-5-methyl-12-((1-(morpholinomethyl)cyclopropyl)methoxy)-5a,6,7,8,9,10-hexahydro-5H-4-oxa-3,10a,11,13,14-pentaaza-6,9-methanonaphtho[1,8-ab]heptalen-2-yl)-5-methyl-4-(trifluoromethyl)aniline]	711 nM	2.72 nM	3.5 nM
Cc1c(F)c(N)c(F)c(-c2nc3c4c(nc(OC[C@@]56CCCN5CC5(CC5(F)F)C6)nc4c2F)N2C[C@H]4CC[C@H](N4)[C@H]2[C@H](C)O3)c1C(F)(F)F (stereo partly drawn) [Compound 225, 3-((5S,5aS,6S,9R)-12-(((7′S)-2,2-Difluorodihydro-1′H,3′H-spiro[cyclopropane-1,2′-pyrrolizin]-7a′(5′H)-yl)methoxy)-1-fluoro-5-methyl-5a,6,7,8,9,10-hexahydro-5H-4-oxa-3,10a,11,13,14-pentaaza[6,9]methanonaphtho[1,8-ab]heptalene-2-yl)-2,6-difluoro-5-methyl-4-(trifluoromethyl)aniline]	561 nM	1.19 nM	2.9 nM
Cc1cc(N)c(F)c(-c2nc3c4c(nc(OCC5(CN6CCOCC6)CC5)nc4c2F)N2C[C@H]4CC[C@H](N4)[C@H]2[C@H](C)O3)c1C(F)(F)F [Compound 226, 2-Fluoro-3-((5S,5aS,6S,9R)-1-fluoro-5-methyl-12-((1-(morpholinomethyl)cyclopropyl)methoxy)-5a,6,7,8,9,10-hexahydro-5H-4-oxa-3,10a,11,13,14-pentaaza-6,9-methanonaphtho[1,8-ab]heptalene-2-yl)-5-methyl-4-(trifluoromethyl)aniline]	568 nM	0.86 nM	1.2 nM
